Read-outs that look alike come from different tables or passages of the source.
Key:
[1] = system: NCI-N87-Luc; assay: Antitumor effect (in vivo) on direct brain transplantation models of NCI-N87-luc; design: species or system nude mouse; settings: 25 mg/kg/day po once a day, Days 1-21
Description: Test Example 11 Antitumor Effect Confirmation Test (In Vivo) on Direct Brain Transplantation Models, into which Luciferase Gene-Introduced HER2 Expressing Cell Line (NCI-N87-luc) is Directly Transplanted
In order to confirm the antitumor effects of a test compound on direct brain transplantation models, NCI-N87-Luc, which was obtained by introducing a Luciferase gene into NCI-N87 that was a human stomach cancer tumor cell line purchased from American Type Culture Collection, was used.
The NCI-N87-Luc cells were re-suspended in PBS in a concentration of 6.25×10^7 cells/mL.
A microdrill was used to drill a hole in the skull, and then, using a needle, a manipulator, and a syringe pump, 4 μL of the cell suspension was transplanted into the brain at a rate of 0.8 μL/min.
As a reference of the amount of brain tumor, approximately 3 weeks after the transplantation, Total Flux (Photon/sec) was measured in all of the survival cases, using IVIS (PerkinElmer, Inc., model: Lumina II). Based on the obtained results, 6 animals were assigned to each group, using the grouping program of MiSTAT (Ver. 2.00).
The test compound was orally administered to the mice once a day, every day, for 21 days from the following day of the grouping (Days 1-21). […]
The value obtained by logarithmic transformation (Log 10) of the total flux on Day 22 in each group was analyzed by a Dunnett's test or a Student-t test. […]

[2] = molecular target: T1, EGFR [D770_N771insNPG] (Homo sapiens, UniProt P00533, INS770NPG); assay: Phosphorylation activity inhibitory effect (in vitro) on mutant EGFR D770_N771insNPG; type: biochemical
T1 construct: purchased Carna Biosciences, Inc
Description: (§1) Test Example 6 Measurement of Phosphorylation Activity Inhibitory Effect (In Vitro) on Wild-Type and Mutant EGFR
(§2) The measurement of the in vitro inhibitory activity of a compound against wild-type and mutant EGFR was outsourced to Carna Biosciences, Inc. (Kinase Profiling Book, https://www.carnabio.com/japanese/product/search.cgi?mode=profiling).
(§3) Specifically, first, the pyrimidine compound of the present invention was diluted stepwise with dimethyl sulfoxide (DMSO). […] To the reaction solution, Termination Buffer was added, so as to terminate the kinase reaction. Finally, using LabChip™ EZ Reader II (PerkinElmer), an unphosphorylated substrate peptide (S) and a phosphorylated peptide (P) were separated and detected according to microchannel capillary electrophoresis.
(§4) As the pyrimidine compound of the present invention, the compound of Example 11 (Example compound 11) was used.

[3] = system: SK-BR-3 cells; assay: Growth inhibitory activity against HER2 expressing cell line SK-BR-3; type: cell-based; settings: Homo sapiens, SK-BR-3, 72 h; 3 days, CellTiter-Glo 2.0
Description: Test Example 3 Measurement of Growth Inhibitory Activity Against HER2 Expressing Cell Line
SK-BR-3 cells as a HER2 overexpressing human breast cancer cell line were suspended in a McCoy's 5a medium (manufactured by Life Technologies) supplemented with 10% fetal bovine serum. The cell suspension was seeded in each well of a 384-well flat-bottom microplate, and was then cultured in a 5% carbon dioxide gas-containing culture vessel at 37° C. for 1 day. Thereafter, the compound of the present invention was dissolved in DMSO, and the pyrimidine compound was diluted to 500 times the final concentration in DMSO. The compound in the DMSO solution was diluted with DMSO solution or the medium used in the suspension of the cells, and the obtained solution was then added to each well of the culture plate so that the final concentration of DMSO was 0.2%. The obtained mixture was further cultured in the 5% carbon dioxide gas-containing culture vessel at 37° C. for 3 days. After completion of the culture for 3 days in the presence of the compound, the cells were counted using CellTiter-Glo 2.0 (manufactured by Promega), and the growth inhibition percentage was then calculated according to the following equation.
Growth inhibitory percentage (%)=(C−T)/(C)×100 […]

[4] = molecular target: T2, EGFR [L858R] (Homo sapiens, UniProt P00533, L858R); assay: Phosphorylation activity inhibitory effect (in vitro) on mutant EGFR L858R; type: biochemical
T2 construct: purchased Carna Biosciences, Inc
Description: as §1, §2, §3, §4

[5] = system: Human stomach cancer-derived tumor cells 4-1ST; settings: for BWC (%, Mean ± SE) / T/C (%) / TV (mm^3, mean ± SE): Day 15; for BWC (%, Mean ± SE) / T/C (%) / TV (mm^3, mean ± SE) / Number of Death / cCR (%) / pCR (%): Days 1-14, po; for cCR (%): clinical CR (TV=0); for pCR (%): pathological CR
Description: Tumor was removed approximately 1 month after subcutaneous transplantation and passage in a 6 week old male nude mouse (BALB/cAJc1-nu/nu, CLEA Japan, Inc.), and a fragment of approximately 2 mm square was prepared. A transplantation needle was filled with one fragment and subcutaneously inserted from around the right last rib of each nude mouse so as to enter the right back. The tumor was pushed out by pressing the inner syringe and thereby transplanted. For the measurement of the tumor size, electronic calipers were used. […] A tumor volume (TV) was calculated from this major axis and minor axis. A relative tumor volume change percentage (T/C) was calculated from the calculated tumor volume. TV and T/C were calculated according to the following equations:
(§5) Tumor Volume (TV)(mm^3)=(Major axis,mm)×(Minor axis,mm)×(Minor axis,mm)/2
(§6) Relative tumor volume change percentage (T/C)(%)=(Mean TV of the administration group)/(Mean TV of a control group)×100
(§7) For the measurement of the body weight, an animal electronic balance was used. A body weight change percentage on the n^th day (BWCn) from the body weight on 0th day (BW0) and the body weight on the n^th day (BWn) was calculated according to the following equation:
(§8) Body weight change percentage BWCn (%)=(BWn−BW0)/BW0×100
Nude mice having TV of 100 to 300 mm^3 were selected and assigned to groups each involving 6 animals by the equal number method [MiSTAT (ver. 2.0)] such that the means of TV were equal among the groups. […] An untreated group was used as a control.
(§9) The presence or absence of a combinatorial effect and toxicity was judged from the tumor sizes and the body weights on the grouping day (Day 0) and the judgement day (Day 15). During the administration period, the body weight was measured every day for calculation of the amount of the dosing solution.
When an individual of TV=0 was found, a complete response (hereinafter, CR) rate was also set as an evaluation item. For the judgement of CR, clinical CR (cCR) based on TV=0 and pathological CR (pCR) based on pathological test were used.
CR rate=(The number of CR individuals in a group found to have CR)/(Total number of individuals in the group found to have CR)×100

[6] = molecular target: T3, EGFR [d746-750] (Homo sapiens, UniProt P00533, DEL746-750); assay: Phosphorylation activity inhibitory effect (in vitro) on mutant EGFR d746-750; type: biochemical
T3 construct: purchased Carna Biosciences, Inc
Description: as §1, §2, §3, §4

[7] = molecular target: T4, EGFR [d746-750/T790M] (Homo sapiens, UniProt P00533, DEL746-750/T790M); assay: Phosphorylation activity inhibitory effect (in vitro) on mutant EGFR d746-750/T790M; type: biochemical
T4 construct: purchased Carna Biosciences, Inc
Description: as §1, §2, §3, §4

[8] = molecular target: T5, EGFR [T790M/L858R] (Homo sapiens, UniProt P00533, L858R/T790M); assay: Phosphorylation activity inhibitory effect (in vitro) on mutant EGFR T790M/L858R; type: biochemical
T5 construct: purchased Carna Biosciences, Inc
Description: as §1, §2, §3, §4

[9] = system: Human stomach cancer-derived tumor cells 4-1ST; settings: for BWC (%, Mean ± SE) / T/C (%) / TV (mm^3, mean ± SE): Day 15; for BWC (%, Mean ± SE) / T/C (%) / TV (mm^3, mean ± SE) / Number of Deaths: Days 1-14, po
Description: Human stomach cancer-derived tumor cells 4-1ST were obtained as fragment tumor from the Central Institute for Experimental Animals. Tumor was removed approximately 1 month after subcutaneous transplantation and passage in a 6 week old male nude mouse (BALB/cAJc1-nu/nu, CLEA Japan, Inc.), and a fragment of approximately 2 mm square was prepared. A transplantation needle was filled with one fragment and subcutaneously inserted from around the right last rib of each nude mouse so as to enter the right back. The tumor was pushed out by pressing the inner syringe and thereby transplanted. For the measurement of the tumor size, electronic calipers were used. […] A tumor volume (TV) was calculated from this major axis and minor axis. A relative tumor volume change percentage (T/C) was calculated from the calculated tumor volume. TV and T/C were calculated according to the following equations:
as §5, §6, §7, §8
Nude mice having TV of 50 to 300 mm^3 were selected and assigned to groups each involving 6 animals by the equal number method [MiSTAT (ver. 2.1)] such that the means of TV were equal among the groups. […] An untreated group was used as a control.
as §9

T1 sequence (P00533 with tags, fused parts or gaps INS770NPG limits assumed): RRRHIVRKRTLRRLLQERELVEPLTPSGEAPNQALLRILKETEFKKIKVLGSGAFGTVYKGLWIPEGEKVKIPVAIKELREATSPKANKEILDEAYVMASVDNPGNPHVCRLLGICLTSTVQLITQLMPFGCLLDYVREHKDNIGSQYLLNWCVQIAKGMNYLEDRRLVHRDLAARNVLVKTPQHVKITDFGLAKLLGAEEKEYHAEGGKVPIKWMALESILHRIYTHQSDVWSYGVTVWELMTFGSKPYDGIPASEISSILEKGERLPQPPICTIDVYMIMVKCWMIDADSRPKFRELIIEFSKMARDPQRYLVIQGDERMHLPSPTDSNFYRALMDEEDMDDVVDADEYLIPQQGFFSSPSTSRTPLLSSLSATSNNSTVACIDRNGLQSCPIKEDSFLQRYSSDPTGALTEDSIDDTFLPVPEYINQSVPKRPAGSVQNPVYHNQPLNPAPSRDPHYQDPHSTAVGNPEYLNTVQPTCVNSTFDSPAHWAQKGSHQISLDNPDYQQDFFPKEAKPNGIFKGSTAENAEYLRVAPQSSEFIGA
T5 sequence (P00533 25-1210 T790M/L858R): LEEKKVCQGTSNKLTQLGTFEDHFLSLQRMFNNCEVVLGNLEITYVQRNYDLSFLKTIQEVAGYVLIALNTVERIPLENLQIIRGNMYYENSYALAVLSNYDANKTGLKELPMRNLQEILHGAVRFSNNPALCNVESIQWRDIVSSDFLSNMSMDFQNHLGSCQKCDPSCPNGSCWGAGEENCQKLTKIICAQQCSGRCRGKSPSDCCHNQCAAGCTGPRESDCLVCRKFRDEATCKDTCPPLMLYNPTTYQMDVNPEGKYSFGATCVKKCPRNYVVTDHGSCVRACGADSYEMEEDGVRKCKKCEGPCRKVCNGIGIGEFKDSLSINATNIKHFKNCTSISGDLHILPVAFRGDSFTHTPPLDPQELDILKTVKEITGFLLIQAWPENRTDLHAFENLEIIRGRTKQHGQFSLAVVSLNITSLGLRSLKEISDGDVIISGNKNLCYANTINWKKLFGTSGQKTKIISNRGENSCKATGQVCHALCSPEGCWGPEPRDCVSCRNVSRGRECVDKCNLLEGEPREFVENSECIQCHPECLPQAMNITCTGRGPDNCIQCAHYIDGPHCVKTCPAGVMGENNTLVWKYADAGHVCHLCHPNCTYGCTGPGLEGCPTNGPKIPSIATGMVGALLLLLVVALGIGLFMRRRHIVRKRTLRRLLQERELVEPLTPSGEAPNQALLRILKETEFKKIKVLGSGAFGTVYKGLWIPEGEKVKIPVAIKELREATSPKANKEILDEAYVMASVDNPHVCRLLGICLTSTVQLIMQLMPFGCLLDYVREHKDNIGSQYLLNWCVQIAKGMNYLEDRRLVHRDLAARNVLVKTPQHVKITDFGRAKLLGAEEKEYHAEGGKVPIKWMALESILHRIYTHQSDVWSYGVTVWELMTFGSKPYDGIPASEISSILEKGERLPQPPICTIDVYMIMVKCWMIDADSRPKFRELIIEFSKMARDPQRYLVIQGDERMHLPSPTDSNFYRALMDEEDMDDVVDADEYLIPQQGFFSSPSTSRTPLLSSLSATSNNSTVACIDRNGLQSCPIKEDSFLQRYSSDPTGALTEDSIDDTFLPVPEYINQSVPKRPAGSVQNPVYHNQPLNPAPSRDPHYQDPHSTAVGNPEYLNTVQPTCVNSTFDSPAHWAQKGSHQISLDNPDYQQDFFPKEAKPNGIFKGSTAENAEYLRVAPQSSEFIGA
T3 sequence (P00533 with tags, fused parts or gaps DEL746-750): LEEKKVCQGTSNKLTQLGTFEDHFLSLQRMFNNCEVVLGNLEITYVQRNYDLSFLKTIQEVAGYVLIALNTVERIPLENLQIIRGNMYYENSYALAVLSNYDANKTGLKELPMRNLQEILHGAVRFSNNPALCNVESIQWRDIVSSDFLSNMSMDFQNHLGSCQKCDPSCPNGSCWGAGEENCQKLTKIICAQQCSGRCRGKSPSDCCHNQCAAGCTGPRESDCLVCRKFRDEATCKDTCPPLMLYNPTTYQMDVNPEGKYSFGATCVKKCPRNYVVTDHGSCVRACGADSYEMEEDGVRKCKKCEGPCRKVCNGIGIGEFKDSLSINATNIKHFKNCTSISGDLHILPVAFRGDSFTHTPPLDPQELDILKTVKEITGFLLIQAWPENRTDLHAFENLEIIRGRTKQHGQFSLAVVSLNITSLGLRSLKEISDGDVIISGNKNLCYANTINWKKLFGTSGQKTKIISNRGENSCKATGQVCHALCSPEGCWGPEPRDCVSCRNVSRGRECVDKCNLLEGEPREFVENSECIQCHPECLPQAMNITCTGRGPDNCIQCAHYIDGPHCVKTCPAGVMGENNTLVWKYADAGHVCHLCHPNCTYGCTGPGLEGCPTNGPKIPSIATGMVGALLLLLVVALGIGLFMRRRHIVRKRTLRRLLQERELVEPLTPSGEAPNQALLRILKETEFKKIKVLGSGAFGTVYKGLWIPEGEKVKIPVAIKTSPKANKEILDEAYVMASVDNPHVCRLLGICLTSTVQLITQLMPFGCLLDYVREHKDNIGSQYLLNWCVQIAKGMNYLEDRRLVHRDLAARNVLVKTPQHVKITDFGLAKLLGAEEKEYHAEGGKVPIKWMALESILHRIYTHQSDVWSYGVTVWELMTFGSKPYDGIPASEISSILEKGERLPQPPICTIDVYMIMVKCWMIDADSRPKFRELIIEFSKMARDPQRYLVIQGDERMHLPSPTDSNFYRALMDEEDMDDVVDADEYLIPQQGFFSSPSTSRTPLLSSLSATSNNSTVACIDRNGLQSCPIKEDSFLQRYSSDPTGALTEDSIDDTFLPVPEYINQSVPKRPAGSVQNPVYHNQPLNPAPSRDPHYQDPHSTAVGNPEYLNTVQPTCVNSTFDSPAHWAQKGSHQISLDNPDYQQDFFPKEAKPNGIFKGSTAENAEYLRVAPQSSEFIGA
T2 sequence (P00533 25-1210 L858R): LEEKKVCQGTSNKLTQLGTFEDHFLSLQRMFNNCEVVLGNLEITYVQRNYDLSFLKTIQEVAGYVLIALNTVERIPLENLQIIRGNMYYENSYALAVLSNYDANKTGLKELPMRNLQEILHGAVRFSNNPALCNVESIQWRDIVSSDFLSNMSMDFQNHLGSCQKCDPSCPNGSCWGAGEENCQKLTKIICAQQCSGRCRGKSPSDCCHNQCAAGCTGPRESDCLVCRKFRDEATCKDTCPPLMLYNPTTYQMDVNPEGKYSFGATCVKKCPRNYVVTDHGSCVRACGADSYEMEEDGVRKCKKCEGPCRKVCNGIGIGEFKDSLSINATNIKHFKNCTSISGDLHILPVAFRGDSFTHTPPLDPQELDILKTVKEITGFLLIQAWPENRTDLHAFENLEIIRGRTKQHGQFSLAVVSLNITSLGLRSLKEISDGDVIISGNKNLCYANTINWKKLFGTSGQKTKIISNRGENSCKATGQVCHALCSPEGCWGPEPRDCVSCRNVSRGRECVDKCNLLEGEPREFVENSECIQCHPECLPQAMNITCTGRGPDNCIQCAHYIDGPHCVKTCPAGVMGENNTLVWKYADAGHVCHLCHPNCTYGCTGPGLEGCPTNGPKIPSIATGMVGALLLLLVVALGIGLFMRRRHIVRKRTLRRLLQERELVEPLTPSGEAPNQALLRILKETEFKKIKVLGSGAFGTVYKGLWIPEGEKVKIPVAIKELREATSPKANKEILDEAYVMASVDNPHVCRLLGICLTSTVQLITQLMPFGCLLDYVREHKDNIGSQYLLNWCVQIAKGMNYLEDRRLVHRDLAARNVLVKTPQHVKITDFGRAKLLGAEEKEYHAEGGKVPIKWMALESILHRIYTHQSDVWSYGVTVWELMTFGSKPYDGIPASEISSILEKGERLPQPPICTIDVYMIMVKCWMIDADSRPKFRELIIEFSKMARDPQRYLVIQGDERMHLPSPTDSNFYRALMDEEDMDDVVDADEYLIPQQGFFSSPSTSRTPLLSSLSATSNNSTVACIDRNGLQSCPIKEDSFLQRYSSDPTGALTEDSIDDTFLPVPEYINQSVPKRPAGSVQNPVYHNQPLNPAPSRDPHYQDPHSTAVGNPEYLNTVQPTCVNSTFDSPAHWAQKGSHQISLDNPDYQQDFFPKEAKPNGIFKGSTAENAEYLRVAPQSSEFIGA

## C=CC(=O)N1C[C@H](n2c(C#CC)c(C(=O)N[C@H](C)c3ccccc3)c3c(N)ncnc32)C[C@@H]1C [Example 2, 7-((3R,5S)-1-acryloyl-5-methylpyrrolidin-3-yl)-4-amino-N—((R)-1-phenylethyl)-6-(prop-1-yn-1-yl)-7H-pyrrolo[2,3-d]pyrimidine-5-carboxamide]
[1]
  body weight reduction of −20% or more: not observed

## C=CC(=O)N1C[C@H](n2c(C#CC3CC3)c(C(=O)N[C@H](C)c3ccccc3)c3c(N)ncnc32)C[C@@H]1C [Example 11, 7-((3R,5S)-1-acryloyl-5-methylpyrrolidin-3-yl)-4-amino-6-(cyclopropylethynyl)-N—((R)-1-phenylethyl)-7H-pyrrolo[2,3-d]pyrimidine-5-carboxamide]
[2]
  IC50: 0.55 nM
[3]
  IC50: 6.6 nM
[4]
  IC50: 0.36 nM
[5]; Example 11 6.25 mg/kg/day
  BWC (%, Mean ± SE): 5.93 ± 0.25%
  T/C (%): 17.3%
  TV (mm^3, mean ± SE): 295.9 ± 67.3 mm^3
  Number of Death: 0
  cCR (%): 0%
  pCR (%): 0%
[5]; Example 11 12.5 mg/kg/day
  BWC (%, Mean ± SE): 4.77 ± 1.14%
  T/C (%): 1.9%
  TV (mm^3, mean ± SE): 31.9 ± 10.7 mm^3
  Number of Death: 0
  cCR (%): 33%
  pCR (%): 33%
[5]; T-mab and P-mab iv Day 1, Example 11 po Days 1-14
  TV on Day 15 versus control group (Dunnett's test): significantly lower TV
[6]
  IC50: 0.25 nM
[7]
  IC50: 6.8 nM
[8]
  IC50: 6.6 nM
[9]; Example 11 6.25 mg/kg/day
  BWC (%, Mean ± SE): 3.69 ± 0.75%
  T/C (%): 22.0%
  TV (mm^3, mean ± SE): 448.7 ± 79.0 mm^3
  Number of Deaths: 0
[9]; Example 11 12.5 mg/kg/day
  BWC (%, Mean ± SE): 3.79 ± 1.07%
  T/C (%): 3.0%
  TV (mm^3, mean ± SE): 62.0 ± 6.9 mm^3
  Number of Deaths: 0
[9]; trastuzumab iv Days 1 and 8 (except for the 20 mg/kg/day group), Example 11 po Days 1-14
  TV on Day 15 versus control group (Dunnett's test): significantly lower TV
[1]
  body weight reduction of −20% or more: not observed

Reference: US20230255972A1, “PYRIMIDINE COMPOUND-CONTAINING COMBINATION TO BE USED IN TUMOR TREATMENT” (TAIHO PHARMACEUTICAL CO., LTD., priority 2020, published 2023)
